# Target: fully phosphorylated, active Mouse ERK2 protein (Mus musculus, UniProt P63085)
# Assay: Active ERK2 assay (AERK2), IMAP format
# Type: biochemical
# Conditions: activated ERK2, IMAP fluorescence polarization, 30 μM ATP
# Description: 14 μl of kinase buffer (10 mM Tris.HCl pH 7.2, 10 mM MgCl2, 0.01% Tween-20, 1 mM DTT) containing 0.4 ng unphosphorylated Mouse ERK2 protein was added to each well of a black 384-well assay plate. […] DMSO concentration during initial incubation is 6.7%. […] DMSO concentration during ERK activation was 4%. After one hour, reactions were terminated by addition of 60 μl IMAP detections beads in binding buffer (Molecular Devices). Binding was allowed to equilibrate for 30 minutes before reading the plate on an LJL Analyst Fluorescence Polarization plate reader.
# Activated ERK2 activity was also determined in the IMAP assay format using the procedure outlined above. […] Reactions proceeded for 30 minutes before termination by addition of 60 μl IMAP detection beads in binding buffer. Plates were read as above after 30 minute binding equilibration.
# Sequence of fully phosphorylated, active Mouse ERK2 protein (P63085 whole entry): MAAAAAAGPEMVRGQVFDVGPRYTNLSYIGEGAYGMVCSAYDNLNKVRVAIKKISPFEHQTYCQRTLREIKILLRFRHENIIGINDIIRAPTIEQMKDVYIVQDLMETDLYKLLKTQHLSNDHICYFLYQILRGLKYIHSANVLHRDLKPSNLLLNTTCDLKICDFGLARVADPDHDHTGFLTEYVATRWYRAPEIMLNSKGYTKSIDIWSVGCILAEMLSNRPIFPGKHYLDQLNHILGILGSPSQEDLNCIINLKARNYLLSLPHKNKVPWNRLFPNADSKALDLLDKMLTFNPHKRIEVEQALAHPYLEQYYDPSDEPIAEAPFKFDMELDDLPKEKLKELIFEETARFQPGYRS
row,Structure (SMILES),IC50
1,CO/N=C(\C)c1cnc(-c2ccc(N3CCN(C(=O)CN4CC[C@@H](C(=O)Nc5ccc(O)c(Cl)c5)C4)CC3)cc2)nc1 [Example 25],18 nM
2,CC(=O)c1cnc(-c2ccc(N3CCN(C(=O)CN4CC[C@@H](C(=O)Nc5ccc(O)c(Cl)c5)C4)CC3)cc2)nc1 [Example 20],44 nM
3,O=C(Nc1ccc(O)c(-c2ccc(F)cc2)c1)[C@@H]1CCN(CC(=O)N2CCN(c3ccc(-c4ncccn4)cc3)CC2)C1 [Example 212],53 nM
4,C/C(=N\O)c1cnc(-c2ccc(N3CCN(C(=O)CN4CC[C@@H](C(=O)Nc5ccc(O)c(Cl)c5)C4)CC3)cc2)nc1 [Example 23],57 nM
5,O=C(Nc1ccc(O)c(C(F)(F)F)c1)[C@@H]1CCN(CC(=O)N2CCN(c3ccc(-c4ncccn4)cc3)CC2)C1 [Example 1],76 nM

# The next lines start with the values.
row,IC50,Structure (SMILES)
1,39 nM,O=C(Nc1ccc(O)c(C2CC2)c1)[C@@H]1CCN(CC(=O)N2CCN(c3ccc(-c4ncccn4)cc3)CC2)C1 [Example 119]
2,40 nM,CC(C)c1cc(NC(=O)[C@@H]2CCN(CC(=O)N3C[C@@H]4C[C@H]3CN4c3ccc(-c4cnccn4)cc3)C2)ccc1O [Example 197]
3,34 nM,O=C(Nc1ccc(O)c(Cl)c1)[C@@H]1CCN(CC(=O)N2C[C@@H]3C[C@H]2CN3c2ccc(-c3ncccn3)cc2)C1 [Example 19]
4,38 nM,CC(C)c1cc(NC(=O)[C@@H]2CCN(CC(=O)N3C[C@@H]4C[C@H]3CN4c3ccc(-c4ncccn4)cc3)C2)ccc1O [Example 196]

# Source: patent US7807672B2, “Compounds that are ERK inhibitors” (Schering Corporation, priority 2006, dated 2010)
